One block for each molecule: values may come before it.
Biological target: T1, human FXR (NR1H4) (Homo sapiens, UniProt Q96RI1)
T1 construct: host or cells: CHO (Chinese hamster ovary) reporter cells
T1 sequence (Q96RI1 1-486): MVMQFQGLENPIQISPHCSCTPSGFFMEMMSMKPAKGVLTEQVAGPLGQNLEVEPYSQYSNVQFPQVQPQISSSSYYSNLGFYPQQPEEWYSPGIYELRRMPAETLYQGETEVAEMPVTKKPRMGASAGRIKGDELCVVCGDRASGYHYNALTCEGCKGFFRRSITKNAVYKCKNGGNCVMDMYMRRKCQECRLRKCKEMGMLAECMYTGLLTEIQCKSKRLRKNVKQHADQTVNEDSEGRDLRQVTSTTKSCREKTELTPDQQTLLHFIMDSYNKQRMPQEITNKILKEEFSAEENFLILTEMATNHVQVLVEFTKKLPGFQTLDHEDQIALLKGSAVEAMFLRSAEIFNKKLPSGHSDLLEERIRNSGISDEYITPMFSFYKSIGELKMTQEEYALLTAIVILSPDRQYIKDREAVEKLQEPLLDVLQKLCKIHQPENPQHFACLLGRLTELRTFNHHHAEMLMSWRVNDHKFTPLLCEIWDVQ
Experiment: Human FXR (NR1H4) Assay: Gal4 promoter driven luciferase reporter transactivation in CHO cells (Indigo Bioscience kit IB00601); for Efficacy (%): efficacy normalized to CDCA set as 100%
Format: cell-based
Details: for Emax: CHO, read-out: Efficacy (%); for EC50: Human FXR (NR1H4) reporter assay, potency ranges
In short: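 CHO reporter cells expressing human FXR with an FXR-responsive promoter-driven luciferase were treated with compound dose series at 0.2% DMSO for 22 h at 37 °C. Luciferase activity was then read by luminescence as the measure of FXR activation.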

Compound: COC(=O)c1cc(OC)c2nc(N3C4CCC3CC(NCc3c(-c5c(Cl)cccc5Cl)noc3C3CC3)C4)sc2c1 (stereo not shown) [Example 5]
Emax: 145% | EC50: 1 to 100 nM

Compound: O=C(NCCS(=O)(=O)O)c1cc(F)c2nc(N3C4CCC3CC(NCc3c(-c5c(Cl)cccc5Cl)noc3C3CC3)C4)sc2c1 (stereo not shown) [Example 200-1]
Emax: 10% | EC50: 1 to 100 nM

Compound: COC(=O)c1cc(C2CC2)c2nc(N3C4CCC3CC(NCc3c(-c5ccccc5C(F)(F)F)noc3C3CC3)C4)sc2c1 (stereo not shown) [Example 1409]
Emax: 52% | EC50: 1 to 100 nM

Compound: O=C(NS(=O)(=O)N1CCCCC1)c1cc(F)c2nc(N3C4CCC3CC(NCc3c(-c5c(Cl)cccc5Cl)noc3C3CC3)C4)sc2c1 (stereo not shown) [Example 300]
Emax: 143% | EC50: < 1 nM

Compound: CC1(S(=O)(=O)NC(=O)c2ccc(N3C4CCC3CC(NCc3c(-c5ccccc5OC(F)(F)F)noc3C3CC3)C4)nc2)CC1 (stereo not shown) [Example 900-14]
Emax: 46.5% | EC50: 100 to 1000 nM

Compound: CN(C)S(=O)(=O)NC(=O)c1cc(F)c2nc(N3C4CCC3CC(NCc3c(-c5c(Cl)cccc5Cl)noc3C3CC3)C4)sc2c1 (stereo not shown) [Example 297]
Emax: 150% | EC50: < 1 nM

Compound: COc1nc2cc(C(=O)O)ccc2nc1N1C2CCC1CC(NCc1c(-c3c(Cl)cccc3Cl)noc1C1CC1)C2 (stereo not shown) [Example 198]
Emax: 140% | EC50: 1 to 100 nM

Compound: O=CC1(S(=O)(=O)NC(=O)c2cc(F)c3nc(N4C5CCC4CC(NCc4c(-c6c(Cl)cccc6Cl)noc4C4CC4)C5)sc3c2)CC1 (stereo not shown) [Example 299]
Emax: 154% | EC50: 1 to 100 nM

Compound: Cc1cc2nc(N3C4CCC3CC(NCc3c(-c5c(Cl)cccc5Cl)noc3C3CC3)C4)sc2cc1C(=O)NS(=O)(=O)C1(C)CC1 (stereo not shown) [Example 400-11]
Emax: 79.3% | EC50: < 1 nM

Compound: CC1(S(=O)(=O)NC(=O)c2ccc3nc(N4C5CCC4CC(NCc4c(-c6ccccc6C(F)(F)F)noc4C4CC4)C5)sc3c2)CC1 (stereo not shown) [Example 1420]
Emax: 91% | EC50: 1 to 100 nM

Compound: CC1(S(=O)(=O)NC(=O)c2ccc3nc(N4C5CCC4CC(NCc4c(C6CCC7(CC6)CC7)noc4C4CC4)C5)sc3c2)CC1 (stereo not shown) [Example 1202]
Emax: 85.5% | EC50: 1 to 100 nM

Compound: Fc1cc(-c2nn[nH]n2)ccc1N1C2CCC1CC(NCc1c(-c3c(Cl)cccc3Cl)noc1C1CC1)C2 (stereo not shown) [Example 138]
Emax: 155% | EC50: < 1 nM

Compound: CC1(S(=O)(=O)NC(=O)c2cc(F)c3nc(N4C5CCC4CC(NCc4c(-c6c(Cl)cccc6Cl)noc4C4CC4)C5)sc3c2)CC1 (stereo not shown) [Example 295]
Emax: 152% | EC50: 1 to 100 nM

Emax: 171% | EC50: 1 to 100 nM
Compound: O=C(NS(=O)(=O)C1CC1)c1ccc2nc(N3CCC(NCc4c(-c5c(Cl)cccc5Cl)noc4C4CC4)CC3)sc2c1 [Example 291]

Compound: O=C(NS(=O)(=O)C1CC1)c1cc(F)c2nc(N3C4CCC3CC(NCc3c(-c5c(Cl)cccc5Cl)noc3C3CC3)C4)sc2c1 (stereo not shown) [Example 298]
Emax: 155% | EC50: 1 to 100 nM

Compound: CCOc1cc(C(=O)O)cc2sc(N3C4CCC3CC(NCc3c(-c5c(Cl)cccc5Cl)noc3C3CC3)C4)nc12 (stereo not shown) [Example 200-10]
Emax: 92.5% | EC50: < 1 nM

Compound: COC(=O)c1cc(OC(C)C)c2nc(N3C4CCC3CC(NCc3c(-c5c(Cl)cccc5Cl)noc3C3CC3)C4)sc2c1 (stereo not shown) [Example 200-13]
Emax: 96% | EC50: < 1 nM

Emax: 86.5% | EC50: 1 to 100 nM
Compound: O=C(O)c1cc(F)c2nc(N3CCC(NCc4c(-c5c(Cl)cccc5Cl)noc4C4CC4)CC3)sc2c1 [Example 200-6]

Compound: O=C(O)c1cnc2nc(N3C4CCC3CC(NCc3c(-c5c(Cl)cccc5Cl)noc3C3CC3)C4)sc2n1 (stereo not shown) [Example 200-18]
Emax: 91.3% | EC50: 1 to 100 nM

Compound: CC1(S(=O)(=O)NC(=O)c2cc(C3CC3)c3nc(N4C5CCC4CC(NCc4c(-c6ccccc6OC(F)(F)F)noc4C4CC4)C5)sc3c2)CC1 (stereo not shown) [Example 900-9]
Emax: 122% | EC50: < 1 nM

Emax: 142% | EC50: 1 to 100 nM
Compound: CN(C)S(=O)(=O)NC(=O)c1ccc2nc(N3CCC(NCc4c(-c5c(Cl)cccc5Cl)noc4C4CC4)CC3)sc2c1 [Example 282]

Emax: 116% | EC50: > 1000 nM
Compound: CCOC(=O)c1ccc2nc(N3CCC(NCc4c(-c5c(Cl)cccc5Cl)noc4C4CC4)CC3)sc2c1 [Example 173]

Compound: O=C(O)CNC(=O)c1cc(F)c2nc(N3C4CCC3CC(NCc3c(-c5c(Cl)cccc5Cl)noc3C3CC3)C4)sc2c1 (stereo not shown) [Example 96]
Emax: 136% | EC50: 1 to 100 nM

Compound: O=C(NS(=O)(=O)N1CCCCC1)c1ccc2nc(N3C4CCC3CC(NCc3c(-c5c(Cl)cccc5Cl)noc3C3CC3)C4)sc2c1 (stereo not shown) [Example 228]
Emax: 140% | EC50: 1 to 100 nM

Compound: O=C(O)c1cc(F)c(N2C3CCC2CC(NCc2c(-c4ccccc4OC(F)(F)F)noc2C2CC2)C3)c(F)c1 (stereo not shown) [Example 646]
Emax: 105% | EC50: 1 to 100 nM

Compound: CC1(S(=O)(=O)NC(=O)c2cc3sc(N4C5CCC4CC(NCc4c(-c6c(Cl)cccc6Cl)noc4C4CC4)C5)nc3cc2-c2ccccc2)CC1 (stereo not shown) [Example 400-32]
Emax: 116% | EC50: < 1 nM

Compound: Cc1cc(C(=O)NS(=O)(=O)C2(C)CC2)cc2sc(N3C4CCC3CC(NCc3c(-c5c(Cl)cccc5Cl)noc3C3CC3)C4)nc12 (stereo not shown) [Example 400-29]
Emax: 118% | EC50: < 1 nM

Compound: O=C(O)c1cc(C2CC2)c2nc(N3C4CCC3CC(NCc3c(-c5ccccc5C(F)(F)F)noc3C3CC3)C4)sc2c1 (stereo not shown) [Example 1410]
Emax: 74.5% | EC50: < 1 nM

Compound: COC(=O)c1ccc2nc(N3C4CCC3CC(NCc3c(-c5c(Cl)cccc5Cl)noc3C3CC3)C4)c(Cl)nc2c1 (stereo not shown) [Example 199]
Emax: 58% | EC50: 100 to 1000 nM

Compound: COC(=O)c1ccc2nc(N3C4CCC3CC(NCc3c(-c5c(Cl)cccc5Cl)noc3C3CC3)C4)c(OC)nc2c1 (stereo not shown) [Example 197]
Emax: 115% | EC50: 100 to 1000 nM

Compound: CN(C)S(=O)(=O)NC(=O)c1ccc2nc(N3C4CCC3CN(Cc3c(-c5c(Cl)cccc5Cl)noc3C3CC3)C4)sc2c1 [Example 280]
Emax: 242% | EC50: 1 to 100 nM

Compound: CC(C)(C)S(=O)(=O)NC(=O)c1ccc2nc(N3C4CCC3CC(NCc3c(-c5c(Cl)cccc5Cl)noc3C3CC3)C4)sc2c1 (stereo not shown) [Example 240]
Emax: 245% | EC50: < 1 nM

Compound: O=C(NS(=O)(=O)C1CC1)c1ccc2nc(N3C4CCC3CC(NCc3c(-c5c(F)cccc5F)noc3C3CC3)C4)sc2c1 (stereo not shown) [Example 1417]
Emax: 69% | EC50: 1 to 100 nM

Compound: O=C(NS(=O)(=O)C(F)(F)F)c1ccc2nc(N3C4CCC3CC(NCc3c(-c5c(Cl)cccc5Cl)noc3C3CC3)C4)sc2c1 (stereo not shown) [Example 236]
Emax: 75% | EC50: 1 to 100 nM

Compound: CC(C)Oc1cc(C(=O)O)cc2sc(N3C4CCC3CC(NCc3c(-c5ccccc5C(F)(F)F)noc3C3CC3)C4)nc12 (stereo not shown) [Example 1401]
Emax: 125% | EC50: 100 to 1000 nM

Compound: Cc1cc(C(=O)NS(=O)(=O)C2(C)CC2)cc2sc(N3C4CCC3CC(NCc3c(-c5ccccc5C(F)(F)F)noc3C3CC3)C4)nc12 (stereo not shown) [Example 1406]
Emax: 133% | EC50: < 1 nM

Compound: COc1cc(C(=O)NS(=O)(=O)C2(C)CC2)cc2sc(N3C4CCC3CC(NCc3c(-c5c(Cl)cccc5Cl)noc3C3CC3)C4)nc12 (stereo not shown) [Example 304]
Emax: 139% | EC50: < 1 nM

Compound: O=C(NS(=O)(=O)c1nccs1)c1ccc2nc(N3C4CCC3CC(NCc3c(-c5c(Cl)cccc5Cl)noc3C3CC3)C4)sc2c1 (stereo not shown) [Example 268]
Emax: 129% | EC50: 100 to 1000 nM

Reference: patent US10450306B2, “Isoxazole analogs as FXR agonists and methods of use thereof” (Enanta Pharmaceuticals, Inc., priority 2016, dated 2019)
